Reference: patent US7943639B2, “Compounds” (Proximagen Limited, priority 2002, dated 2011)
pKi: −log10 of the molar value. Where a name gives a salt, the structure may show the parent alone. Read-outs that look alike come from different tables or passages of the source.

How the values were obtained:
[1] = target: T1, human 5-HT6 receptor (Homo sapiens, UniProt P50406); assay: 5-HT6 binding assay ([3H]-LSD, SPA, membranes of transfected HEK293 cells); details: for Ki: In vitro binding at the human 5-HT6 receptor, [3H]-LSD as labeled ligand, read-out: Ki (nM) human 5-HT6
T1 construct: expressed in transfected cells; host or cells: HEK-293 cells under G-418 selection; membranes were prepared from them
T1 sequence (P50406 whole entry): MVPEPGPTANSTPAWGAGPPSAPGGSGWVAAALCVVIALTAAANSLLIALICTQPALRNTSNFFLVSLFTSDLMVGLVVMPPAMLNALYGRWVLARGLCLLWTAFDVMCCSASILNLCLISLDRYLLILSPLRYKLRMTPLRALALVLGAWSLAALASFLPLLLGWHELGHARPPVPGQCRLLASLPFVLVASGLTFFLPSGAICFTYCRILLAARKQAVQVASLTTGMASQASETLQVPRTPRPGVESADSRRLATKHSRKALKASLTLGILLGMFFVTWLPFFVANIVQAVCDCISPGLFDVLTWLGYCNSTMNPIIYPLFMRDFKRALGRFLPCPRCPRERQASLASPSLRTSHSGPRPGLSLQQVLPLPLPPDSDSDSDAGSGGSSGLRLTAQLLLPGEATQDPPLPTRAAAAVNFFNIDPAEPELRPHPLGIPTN

[2] = Plasma drug concentration at steady state in the food intake study; format: in vivo; details: mouse, subcutaneous, 50 mg/kg/day, Ob/ob mice, single administration 50 mg/kg/d, read-out: Css, u
Description: The animals are weighed at the start of the study and randomized based on body weight. Alzet osmotic minipumps (Model 2001D; infusion rate 8 μl/h) are used and loaded essentially as recommended by the Alzet technical information manual (Alza Scientific Products, 1997; Theeuwes, F. and Yam, S. I. Ann. Biomed. Eng. 4(4). 343-353, 1976). Continuous subcutaneous infusion with 24 hours duration is used. The minipumps are either filled with different concentrations of test compounds dissolved in vehicle or with only vehicle solution and maintained in vehicle pre-warmed to 37° C. (approx. 1 h). The minipumps are implanted subcutaneously in the neck/back region under short acting anesthesia (metofane/enflurane). This surgical procedure lasts approximately 5 min. It takes about 3 h to reach steady state delivery of the compound.
The weight of the food pellets are measured at 5 p.m. and at 8 p.m. for two days before (baseline) and one day after the implantation of the osmotic minipumps. The weigh-in is performed with a computer assisted Mettler Toledo PR 5002 balance. Occasional spillage is corrected for. At the end of the study the animals are killed by neck dislocation and trunk blood sampled for later analysis of plasma drug concentrations.
The plasma sample proteins are precipitated with methanol, centrifuged and the supernatant is transferred to HPLC vials and injected into the liquid chromatography/mass spectrometric system. The mass spectrometer is set for electrospray positive ion mode and Multiple Reaction Monitoring. A linear regression analysis of the standards forced through the origin is used to calculate the concentrations of the unknown samples.

[3] = system: Ob/ob mice; assay: In vivo assay of reduction of food intake; set-up: species or system mouse; details: infusion 50 mg/kg/d, measured at steady state
Description: (c) In Vivo Assay of Reduction of Food Intake
Obese (ob/ob) mouse is selected as the primary animal model for screening as this mutant mouse consumes high amounts of food resulting in a high signal to noise ratio. To further substantiate and compare efficacy data, the effect of the compounds on food consumption is also studied in wild type (C57BL/6J) mice. The amount of food consumed during 15 hours of infusion of compounds is recorded.
Male mice (obese C57BL/6JBom-Lep^ob and lean wild-type C57B1/6JBom; Bomholtsgaard, Denmark) 8-9 weeks with an average body weight of 50 g (obese) and 25 g (lean) are used in all the studies. The animals are housed singly in cages at 23±1° C., 40-60% humidity and have free access to water and standard laboratory chow. The 12/12-h light/dark cycle is set to lights off at 5 p.m. The animals are conditioned for at least one week before start of study.
The test compounds are dissolved in solvents suitable for each specific compound such as cyclodextrin, cyclodextrin/methane sulfonic acid, polyethylene glycol/methane sulfonic acid, saline. Fresh solutions are made for each study. Doses of 30, 50 and 100 mg kg^−1day^−1 are used. The purity of the test compounds is of analytical grade.
The animals are weighed at the start of the study and randomized based on body weight. Alzet osmotic minipumps (Model 2001D; infusion rate 8 μl/h) are used and loaded essentially as recommended by the Alzet technical information manual (Alza Scientific Products, 1997; Theeuwes, F. and Yam, S. I. Ann. Biomed. Eng. 4(4). 343-353, 1976). Continuous subcutaneous infusion with 24 hours duration is used. […]
The weight of the food pellets are measured at 5 p.m. and at 8 p.m. for two days before (baseline) and one day after the implantation of the osmotic minipumps. […]
Food consumption for 15 hours is measured for the three consecutive days and the percentage of basal level values is derived for each animal from the day before and after treatment. The values are expressed as mean±SD and ±SEM from eight animals per dose group. […]

Compound | Ki [1] [nM] | concentration at 24 h [2] [nM] | % FI reduction [3] [%] | also measured
CC(C)(C)c1ccc(S(=O)(=O)c2ccc3nccc(N4CCNCC4)c3c2)cc1.Cl [Example 11, 6-[(4-tert-Butylphenyl)sulfonyl]-4-piperazin-1-ylquinoline hydrochloride] | 6.5 | 20 | 47.1 | –
O=S(=O)(c1ccccc1)n1ccc2c(N3CCNCC3)nccc21 [Example 131, 1-(Phenylsulfonyl)-4-piperazin-1-yl-1H-pyrrolo[3,2-c]pyridine hydrochloride] | – | – | – | pKi [1]: 8.30
CN1C[C@@H](NS(=O)(=O)N(C)C)C[C@@H]2c3cccc4c3c(cn4C)C[C@H]21 [mesulergide, reference compound] | – | – | – | pKi ([1]; 3 nM [3H] LSD, 5-HT: over all average against two different membrane preparations, read-out: Ki value, inhibition of [3H] LSD binding (reference compounds, rank order of potency)): 5.71
Cl.O=S(=O)(Nc1ccc(O[C@@H]2CCNC2)c2ccccc12)c1ccc(Cl)cc1 [Example 40, 4-Chloro-N-{4-[(3R)-pyrrolidin-3-yloxy]-1-naphthyl}benzenesulfonamide hydrochloride] | 7.5 | 200 | 44 | –
NCCc1c[nH]c2ccc(O)cc12 [Example 5-HT, 5-hydroxytryptamine, reference compound] | – | – | – | Hill coefficient ([1]; inter assay variability over three experiments): 0.94 (SD 0.09)
O=S(=O)(c1cc2c(N3CCCNCC3)nccc2s1)c1cccc2ccccc12 [Example 85, 4-(1,4-Diazepan-1-yl)-2-[1-naphthylsulfonyl)thieno[3,2-c]pyridine hydrochloride] | 32 | – | – | –

Further lines, with some results ahead:

Ki [1] [nM] | concentration at 24 h [2] [nM] | Compound | % FI reduction [3] [%] | also measured
10 | 440 | Cl.O=S(=O)(c1ccccc1)c1ccc2nccc(N3CCNCC3)c2c1 [Example 1, 6-benzenesulfonyl-4-piperazin-1-yl-quinoline hydrochloride] | 12 | –
13 | – | O=S(=O)(NCCc1cccs1)c1cc2c(N3CCNCC3)nccc2s1 [Example 68, 4-Piperazin-1-yl-thieno[3,2-c]pyridine-2-sulfonic acid (2-thiophen-2-yl-ethyl)-amide hydrochloride] | – | –
4.5 | – | CN1CCN(c2nccc3sc(S(=O)(=O)Nc4ccccc4)cc23)CC1 [Example 43, 4-(4-Methylpiperazin-1-yl)-N-phenylthieno[3,2-c]pyridine-2-sulfonamide hydrochloride] | – | –
10.5 | – | Cc1ccc(C)c(S(=O)(=O)c2ccc3ccnc(N4CCNCC4)c3c2)c1 [Example 20, 7-(2,5-Dimethyl-benzenesulfonyl)-1-piperazin-1-yl-isoquinoline hydrochloride] | – | –
